According to ChEMBL document CHEMBL3779769, “Indole-2-carboxylic acid derived mono and bis 1,4-disubstituted 1,2,3-triazoles: Synthesis, characterization and evaluation of anticancer, antibacterial, and DNA-cleavage activities” (Bioorg Med Chem Lett, 2016):
≈ marks a conversion by molar mass, not a printed value. Calls of active or inactive are those of the source. The rule behind the calls is not given here.

Assays:
[1] = tested on: HeLa; experiment: Cytotoxicity against human HeLa cells assessed as cell viability after 48 hrs by MTT assay; type: functional, cell-based
[2] = tested on: MCF7; experiment: Cytotoxicity against human MCF7 cells assessed as cell viability after 48 hrs by MTT assay; type: functional, cell-based; conditions: MCF7, 48 h
[3] = tested on: Proteus vulgaris; experiment: Antibacterial activity against Proteus vulgaris MTCC 1771 by broth dilution method; type: functional
[4] = tested on: HEK293; experiment: Cytotoxicity against HEK293 cells assessed as cell viability after 48 hrs by MTT assay; type: cell-based; conditions: Homo sapiens, HEK293, 48 h
[5] = tested on: Escherichia coli; experiment: Antibacterial activity against Escherichia coli MTCC 443 by broth dilution method; type: functional
[6] = tested on: Bacillus subtilis; experiment: Antibacterial activity against Bacillus subtilis MTCC 441 by broth dilution method; type: functional
[7] = tested on: Staphylococcus aureus; experiment: Antibacterial activity against Staphylococcus aureus MTCC 96 by broth dilution method; type: functional
[8] = tested on: Mus musculus; experiment: Effect on hemoglobin level in Swiss albino mouse xenografted with mouse EAC cells at 5 mg/kg, ip administered for 9 days measured on day 14 (reference value: 5.67 +/- 0.8 g%); type: functional, Ehrlich
[9] = Anticancer activity against mouse EAC cells xenografted in Swiss albino mouse assessed as viable tumor cell count at 5 mg/kg, ip administered for 9 days measured after 14 days by trypan blue incorporation method (reference value: 7.30 +/- 0.6 10^7/ml); type: functional, Ehrlich
[10] = Anticancer activity against mouse EAC cells xenografted in Swiss albino mouse assessed as mean survival time at 5 mg/kg, ip administered for 9 days measured for 30 days (reference value: 12.8 +/- 0.7 days); type: functional, Ehrlich
[11] = tested on: Mus musculus; experiment: Effect on total protein level in Swiss albino mouse xenografted with mouse EAC cells at 5 mg/kg, ip administered for 9 days measured on day 14 (reference value: 7.84 +/- 0.36 […]); type: functional, Ehrlich
[12] = tested on: Mus musculus; experiment: Effect on RBC level in Swiss albino mouse xenografted with mouse EAC cells at 10 mg/kg, ip administered for 9 days measured on day 14 (reference value: 3.01+/- 0.75 10^6/mm3); type: functional, Ehrlich
[13] = tested on: Mus musculus; experiment: Effect on RBC level in Swiss albino mouse xenografted with mouse EAC cells at 5 mg/kg, ip administered for 9 days measured on day 14 (reference value: 3.01+/- 0.75 10^6/mm3); type: functional, Ehrlich
[14] = tested on: Mus musculus; experiment: Effect on hemoglobin level in Swiss albino mouse xenografted with mouse EAC cells at 10 mg/kg, ip administered for 9 days measured on day 14 (reference value: 5.67 +/- 0.8 g%); type: functional, Ehrlich
[15] = tested on: Mus musculus; experiment: Effect on total protein level in Swiss albino mouse xenografted with mouse EAC cells at 10 mg/kg, ip administered for 9 days measured on day 14 (reference value: 7.84 +/- 0.36 […]); type: functional, Ehrlich
[16] = Anticancer activity against mouse EAC cells xenografted in Swiss albino mouse assessed as tumor volume at 5 mg/kg, ip administered for 9 days measured after 14 days (reference value: 12.15 +/- 0.5 ml); type: functional, Ehrlich
[17] = Anticancer activity against mouse EAC cells xenografted in Swiss albino mouse assessed as percent increase in life span at 10 mg/kg, ip administered for 9 days measured for 30 days; type: functional; conditions: Ehrlich
[18] = tested on: Mus musculus; experiment: Effect on body weight in Swiss albino mouse xenografted with mouse EAC cells at 10 mg/kg, ip administered for 9 days (reference value: 13.57 +/- 0.4 g); type: functional, Ehrlich
[19] = tested on: Mus musculus; experiment: Effect on body weight in Swiss albino mouse xenografted with mouse EAC cells at 5 mg/kg, ip administered for 9 days (reference value: 13.57 +/- 0.4 g); type: functional, Ehrlich
[20] = tested on: Mus musculus; experiment: Effect on SGPT level in Swiss albino mouse xenografted with mouse EAC cells at 5 mg/kg, ip administered for 9 days measured on day 14 (reference value: 55.3 +/- 0.52 IU/L); type: functional, Ehrlich
[21] = tested on: Mus musculus; experiment: Effect on WBC level in Swiss albino mouse xenografted with mouse EAC cells at 5 mg/kg, ip administered for 9 days measured on day 14 (reference value: 22.07 +/- 0.11 10^3/mm3); type: functional, Ehrlich
[22] = Anticancer activity against mouse EAC cells xenografted in Swiss albino mouse assessed as packed cell volume at 5 mg/kg, ip administered for 9 days measured after 14 days […] (reference value: 2.62 +/- 0.5 ml); type: functional, Ehrlich
[23] = Anticancer activity against mouse EAC cells xenografted in Swiss albino mouse assessed as mean survival time at 10 mg/kg, ip administered for 9 days measured for 30 days (reference value: 12.8 +/- 0.7 days); type: functional, Ehrlich
[24] = tested on: Mus musculus; experiment: Effect on SGOT level in Swiss albino mouse xenografted with mouse EAC cells at 10 mg/kg, ip administered for 9 days measured on day 14 (reference value: 116.04 +/- 0.14 IU/L); type: functional, Ehrlich
[25] = Anticancer activity against mouse EAC cells xenografted in Swiss albino mouse assessed as viable tumor cell count at 10 mg/kg, ip administered for 9 days measured after 14 days by trypan blue incorporation method (reference value: 7.30 +/- 0.6 10^7/ml); type: functional, Ehrlich
[26] = Anticancer activity against mouse EAC cells xenografted in Swiss albino mouse assessed as percent increase in life span at 5 mg/kg, ip administered for 9 days measured for 30 days; type: functional; conditions: Ehrlich
[27] = tested on: Mus musculus; experiment: Effect on SGPT level in Swiss albino mouse xenografted with mouse EAC cells at 10 mg/kg, ip administered for 9 days measured on day 14 (reference value: 55.3 +/- 0.52 IU/L); type: functional, Ehrlich
[28] = Anticancer activity against mouse EAC cells xenografted in Swiss albino mouse assessed as packed cell volume at 10 mg/kg, ip administered for 9 days measured after 14 days […] (reference value: 2.62 +/- 0.5 ml); type: functional, Ehrlich
[29] = tested on: Mus musculus; experiment: Effect on SGOT level in Swiss albino mouse xenografted with mouse EAC cells at 5 mg/kg, ip administered for 9 days measured on day 14 (reference value: 116.04 +/- 0.14 IU/L); type: functional, Ehrlich
[30] = Anticancer activity against mouse EAC cells xenografted in Swiss albino mouse assessed as tumor volume at 10 mg/kg, ip administered for 9 days measured after 14 days (reference value: 12.15 +/- 0.5 ml); type: functional, Ehrlich
[31] = tested on: Mus musculus; experiment: Effect on WBC level in Swiss albino mouse xenografted with mouse EAC cells at 10 mg/kg, ip administered for 9 days measured on day 14 (reference value: 22.07 +/- 0.11 10^3/mm3); type: functional, Ehrlich
[32] = tested on: Escherichia coli; experiment: Induction of DNA cleavage of Escherichia coli pUC18 at 50 ug/ml by agarose gel electrophoresis
[33] = tested on: Escherichia coli; experiment: Induction of DNA cleavage of Escherichia coli pUC18 at 100 ug/ml by agarose gel electrophoresis

COc1ccc(-n2cc(COC(=O)c3cc4ccccc4n3Cc3cn(-c4ccc(OC)cc4)nn3)nn2)cc1
IC50 [1]: 56.1 µM | IC50 [2]: 100 µM | MIC [3]: 9.38 µg/mL (≈ 17.5 µM) | IC50 [4]: 43.9 µM | MIC [5]: > 150 µg/mL | MIC [6]: > 150 µg/mL | MIC [7]: > 150 µg/mL

Cc1cccc(-n2cc(COC(=O)c3cc4ccccc4n3Cc3cn(-c4cccc(C)c4C)nn3)nn2)c1C
IC50 [1]: > 200 µM | IC50 [2]: > 200 µM | MIC [3]: > 150 µg/mL | IC50 [4]: 14.1 µM | MIC [5]: > 150 µg/mL | MIC [6]: > 150 µg/mL | MIC [7]: > 150 µg/mL

O=C(OCc1cn(-c2cccc(C(F)(F)F)c2)nn1)c1cc2ccccc2n1Cc1cn(-c2cccc(C(F)(F)F)c2)nn1
IC50 [1]: 9.89 µM | Activity [8]: 7.32 g% | Activity [9]: 6.27 ×10⁷ /ml | MST [10]: 17.23 days | Activity [11]: 7.02 mg/dL | Activity [12]: 4.12 ×10⁶ /mm3 | Activity [13]: 3.78 ×10⁶ /mm3 | IC50 [2]: 13.3 µM | MIC [3]: > 150 µg/mL | Activity [14]: 9.3 g% | Activity [15]: 5.96 mg/dL | Activity [16]: 9.32 mL | ILS at 10 mg/kg [17]: 34.1% | Activity [18]: 9.7 g | Activity [19]: 11.83 g | Activity [20]: 53.7 IU/L | IC50 [4]: 9.08 µM | MIC [5]: 1.17 µg/mL (≈ 1.92 µM) | Activity [21]: 19.32 ×10³ /mm3 | Activity [22]: 1.63 mL | MST [23]: 22.56 days | Activity [24]: 98.41 IU/L | Activity [25]: 5.31 ×10⁷ /ml | MIC [6]: 2.34 µg/mL (≈ 3.83 µM) | ILS at 5 mg/kg [26]: 14.2% | Activity [27]: 45.18 IU/L | Activity [28]: 0.86 mL | Activity [29]: 109.03 IU/L | MIC [7]: > 150 µg/mL | Activity [30]: 5.08 mL | Activity [31]: 16.32 ×10³ /mm3

CCCCc1ccc(-n2cc(COC(=O)c3cc4ccccc4[nH]3)nn2)cc1
IC50 [1]: > 200 µM | IC50 [2]: 28.8 µM | MIC [3]: > 150 µg/mL | Activity [32]: Active | IC50 [4]: 24.2 µM | MIC [5]: > 150 µg/mL | MIC [6]: > 150 µg/mL | MIC [7]: > 150 µg/mL

Cc1cc(C)cc(-n2cc(COC(=O)c3cc4ccccc4n3Cc3cn(-c4cc(C)cc(C)c4)nn3)nn2)c1
IC50 [1]: 28.8 µM | IC50 [2]: 45.2 µM | MIC [3]: > 150 µg/mL | IC50 [4]: 50.2 µM | MIC [5]: > 150 µg/mL | MIC [6]: > 150 µg/mL | MIC [7]: > 150 µg/mL

CN[C@@H]1[C@H](O[C@H]2[C@H](O[C@H]3[C@H](O)[C@@H](O)[C@H](N=C(N)N)[C@@H](O)[C@@H]3N=C(N)N)O[C@@H](C)[C@]2(O)C=O)O[C@@H](CO)[C@H](O)[C@H]1O [STREPTOMYCIN]
MIC [3]: 3.12 µg/mL (≈ 5.37 µM) | MIC [5]: 6.25 µg/mL (≈ 10.7 µM) | MIC [6]: 6.25 µg/mL (≈ 10.7 µM) | MIC [7]: 6.25 µg/mL (≈ 10.7 µM)

O=C(OCc1cn(-c2cccc(C(F)(F)F)c2)nn1)c1cc2ccccc2[nH]1
IC50 [1]: 11.7 µM | IC50 [2]: 16.5 µM | MIC [3]: > 150 µg/mL | IC50 [4]: 32.7 µM | MIC [5]: 2.34 µg/mL (≈ 6.07 µM) | MIC [6]: 4.69 µg/mL (≈ 12.1 µM) | Activity [33]: Active | MIC [7]: > 150 µg/mL

CCCCc1ccc(-n2cc(COC(=O)c3cc4ccccc4n3Cc3cn(-c4ccc(CCCC)cc4)nn3)nn2)cc1
IC50 [1]: 42.8 µM | IC50 [2]: 66.9 µM | MIC [3]: > 150 µg/mL | IC50 [4]: > 200 µM | MIC [5]: > 150 µg/mL | MIC [6]: > 150 µg/mL | MIC [7]: > 150 µg/mL

Cc1cc(C)cc(-n2cc(COC(=O)c3cc4ccccc4[nH]3)nn2)c1
IC50 [1]: 30.2 µM | IC50 [2]: 30.5 µM | MIC [3]: > 150 µg/mL | IC50 [4]: 12.5 µM | MIC [5]: > 150 µg/mL | MIC [6]: > 150 µg/mL | Activity [33]: Active | MIC [7]: > 150 µg/mL

COc1ccc(-n2cc(COC(=O)c3cc4ccccc4[nH]3)nn2)cc1
IC50 [1]: 16.1 µM | IC50 [2]: 16.2 µM | MIC [3]: 4.69 µg/mL (≈ 13.5 µM) | IC50 [4]: 42.5 µM | MIC [5]: > 150 µg/mL | MIC [6]: > 150 µg/mL | MIC [7]: > 150 µg/mL

Cc1cccc(-n2cc(COC(=O)c3cc4ccccc4[nH]3)nn2)c1C
IC50 [1]: 30.3 µM | IC50 [2]: 17.1 µM | MIC [3]: > 150 µg/mL | IC50 [4]: 15.3 µM | MIC [5]: > 150 µg/mL | MIC [6]: > 150 µg/mL | MIC [7]: 4.69 µg/mL (≈ 13.5 µM)

O=C(OCc1cn(-c2ccccc2Br)nn1)c1cc2ccccc2[nH]1
IC50 [1]: 17.3 µM | IC50 [2]: 38.8 µM | MIC [3]: > 150 µg/mL | IC50 [4]: > 200 µM | MIC [5]: > 150 µg/mL | MIC [6]: > 150 µg/mL | MIC [7]: > 150 µg/mL

O=C(OCc1cn(-c2ccccc2Br)nn1)c1cc2ccccc2n1Cc1cn(-c2ccccc2Br)nn1
IC50 [1]: 35.9 µM | IC50 [2]: 64.1 µM | MIC [3]: > 150 µg/mL | IC50 [4]: 12.1 µM | MIC [5]: > 150 µg/mL | MIC [6]: 1.17 µg/mL (≈ 1.85 µM) | Activity [33]: Active | MIC [7]: 2.34 µg/mL (≈ 3.7 µM)
